Data from US6929935B2, “Gluconobacter oxydans 2-ketoreductase enzyme and applications thereof” (Bristol-Myers Squibb Company, priority 2001, dated 2005).

Tested on: G. oxydans 2-ketoreductase
Test: Reduction of alkylketones with extract of E. coli expressing recombinant 2-ketoreductase, analysed by gas chromatography
Format: biochemical, Gluconobacter oxydans
Conditions: NAD+/formate/formate dehydrogenase, 28° C., 16 hr; for % Conversion: 2 mg 2-ketone, 0.5 ml E. coli pBMS2000-KR extract, ketone to 2-alcohol
Protocol: Analysis of enantiomeric alcohols by gas chromatography: Samples were extracted in ethyl acetate and dried over anhydrous magnesium sulfate. Samples were then applied onto a Astec Chiraldex G-TA, gamma cyclodextrin column (20 m×0.25 mm×0.125 μm thickness; Astec, Whippany, N.J.) equipped with a guard column (Hewlett-Packard Ultra II, 5% phenyl methyl silicone, 5 m×0.32 mm×0.17 μm thickness; Agilent Technologies, Palo Alto, Calif.). The temperature of the injector was set at 150° C. and the detector of the chromatograph (Hewlett-Packard 5890) was set at 200° C. Detection was carried out with a flame ionization detector (Agilent Technologies). The separation was carried out by a gradient under the following conditions: 28° C. for 15 minutes, 5° C./min to 50° C. and hold 5 minutes. The helium flow rate was maintained at 22 cm/min. Under these conditions, the retention times for S-2-pentanol, R-2-pentanol, and 2-pentanone were 10.85, 11.67 and 17.84 minutes respectively.
The reaction contained 0.18 mg NAD+, 30 mg sodium formate, 0.3 units formate dehydrogenase (Sigma, St. Louis, Mo.), 2 mg 2-pentanone, and 0.5 ml of extract from an E. coli (BL21(DE3)) culture containing the pBMS2000-KR plasmid and expressing the ketoreductase. Alternatively, P. pastoris formate dehydrogenase (see S. Goldberg et al.: U.S. Provisional Patent Application Ser. No. 60/341,934 filed Dec. 19, 2001; U.S. Provisional Application Ser. No. 60/375,530 filed Apr. 25, 2002; and U.S. patent application Ser. No. 10/320,300; the contents of which are hereby incorporated by reference in their entirety) can be substituted for the commercial formate dehydrogenase. Cell extracts were obtained as follows: 2 g recombinant cells was suspended in 10 ml Buffer A (50 mM Tris-HCl, pH 7.5, 1 mM CaCl2, and 1 mM MgCl2). The resuspended cells were sonicated for 2 min (20 sec pulse “on” and 30 sec pulse “off”) using Model 550 Sonic Dismembrator (Misonix Inc., Farmingdale, N.Y.). The resulting mixture was centrifuged for 15 min at 8000 rpm at 4° C. The supernatant was removed and used for reduction reactions. The reactions were carried out in a culture tube at 28° C. with shaking at 200 rpm. After 16 hr, samples were quenched with 2 ml of ethyl acetate and analyzed by gas chromatography (described earlier).
The reactions contained 0.18 mg NAD+, 30 mg sodium formate, 0.3 units formate dehydrogenase (purchased from Sigma), 2 mg 2-ketones, and 0.5 ml of extract from the E. coli culture containing the pBMS2000-KR plasmid and expressing the ketoreductase (described above). The reactions were carried out in a culture tube at 28° C. on a shaker at 200 rpm. The end of 16 hr, samples were quenched with 2 ml of ethyl acetate and analyzed by gas chromatography (described earlier).

Row | SMILES | % Conversion | reduction of the substrate to 2-pentanol using recombinant enzyme (2 mg substrate, 0.5 ml E. coli BL21(DE3) pBMS2000-KR extract)
1 | CCCCCCC(C)=O [2-Octanone] | >98% | –
2 | CCCCCCCCC(C)=O [2-Decanone] | >98% | –
3 | CCCC(C)=O [2-pentanone] | – | complete reduction
4 | CCCCCC(C)=O [2-Heptanone] | >98% | –
